Legend:
[1] = system: dog anaesthetized with nembutal; assay: Blood flow in thoracic aorta (cardiac output), vertebral artery (cerebral flow) and femoral artery (musculocutaneous peripheral flow), electromagnetic flow measurement, anaesthetized dog; format: in vivo; conditions: 2 mg/kg animal body weight, intravenous; for increase in the femoral flow: femoral artery; for increase in the cardiac flow: thoracic aorta; for increase in the cerebral flow (in words): vertebral artery; for duration of the increase of the cerebral circulation: increase by 30 to 40%
Description: The measurements were carried out by means of periarterial probes according to the principle of electromagnetic flow measurement. The general experimental conditions have already been described in the Literature (D. WELLENS and E. WAUTERS, Arch.Int.Pharmacod.171/1,(1968), 246). The medicament was administered by intravenous route.
The administration of compounds according to the invention, namely the 2-chloro-4-isopropylamino-thieno[3,4-d]pyrimidine monohydrochloride (compound A), the 2-chloro-4-morpholino-thieno[3,4-d]pyrimidine monohydrochloride (compound B), the 2-chloro-4-(3-methyl-morpholino)-thieno[3,4-d]pyrimidine monohydrochloride (compound C), the 2-n-propylamino-4-isopropylamino-thieno[3,4-d]-pyrimidine monomaleate (compound D) and the 2-n-propyl-4-isopropylamino-thieno[3,4-d]pyrimidine mono-maleate (compound E) brought about the following effects under these conditions: […]

[2] = Intravenous lethal dose (LD50) in rat; conditions: in vivo, solvent: A propylene glycol + water, B polyethylene glycol + ethanol, C, F, G water, D glycofurol
Description: (§1) The intravenously administered lethal doses (LD50) were determined in rat and mouse. For compounds A to G mentioned above, the recorded results, expressed in mg of compound per kg of animal body weight, are given in the following Table: […]

[3] = Intravenous lethal dose (LD50) in mouse; conditions: in vivo, solvent: C water, D glycofurol, E polyethylene glycol
Description: as §1

[4] = system: rabbit, in morphinic respiratory depression; assay: Respiratory analeptic action in morphinic respiratory depression; format: in vivo; conditions: 2,5 mg of free base/kg animal body weight

For CC(C)Nc1nc(Cl)nc2cscc12.Cl [A, 2-chloro-4-isopropylamino-thieno[3,4-d]pyrimidine monohydrochloride], which “increase in the femoral flow” value [1] is on record?
Its value is “appreciable increase”.

What about the “increase in the cardiac flow” value [1] of the same compound?
Its value is “appreciable increase”.

What about the “increase in the cerebral flow (in words)” value [1] of the same compound?
The value was “appreciable increase”.

And the LD50 [2]?
Its LD50 is 65 mg/kg.

What does the source list for Cl.Clc1nc(N2CCOCC2)c2cscc2n1 [B, 2-chloro-4-morpholino-thieno[3,4-d]pyrimidine monohydrochloride]?
increase in the femoral flow [1]: appreciable increase; increase in the cardiac flow [1]: appreciable increase; increase in the cerebral flow (in words) [1]: appreciable increase; LD50 [2]: 130 mg/kg

With CC1COCCN1c1nc(Cl)nc2cscc12.Cl (stereo not shown) [C, 2-chloro-4-(3-methyl-morpholino)-thieno[3,4-d]pyrimidine monohydrochloride] as the compound, how does the “increase in the femoral flow” value [1] read?
Its value is “marked increase”.

What about the “increase in the cardiac flow” value [1] of the same compound?
The value was “appreciable increase”.

And the “increase in the cerebral flow (in words)” value [1]?
Its value is “marked increase”.

And the “duration of the increase of the cerebral circulation” value [1]?
The value was “at least 40 minutes”.

And the LD50 [2]?
The LD50 was 109 mg/kg.

What about the LD50 [3] of the same compound?
The LD50 was 117 mg/kg.

What does the source list for CCCNc1nc(NC(C)C)c2cscc2n1.O=C(O)/C=C\C(=O)O [D, 2-n-propylamino-4-isopropylamino-thieno[3,4-d]-pyrimidine monomaleate]?
increase in the femoral flow [1]: marked increase; increase in the cardiac flow [1]: appreciable increase; increase in the cerebral flow (in words) [1]: marked increase; duration of the increase of the cerebral circulation [1]: at least 40 minutes; LD50 [2]: 25.5 mg/kg; LD50 [3]: 21 mg/kg

Which “increase in the femoral flow” value [1] does the source give for CCCc1nc(NC(C)C)c2cscc2n1.O=C(O)/C=C\C(=O)O [E, 2-n-propyl-4-isopropylamino-thieno[3,4-d]pyrimidine mono-maleate] here?
The value was “appreciable increase”.

And the “increase in the cardiac flow” value [1]?
The value was “appreciable increase”.

And the “increase in the cerebral flow (in words)” value [1]?
The value was “appreciable increase”.

And the LD50 [3]?
Its LD50 is 23 mg/kg.

For CCOc1nc(NC(C)C)c2cscc2n1.Cl [F, 2-ethoxy-4-isopropylamino-thieno[3,4-d]pyrimidine monohydrochloride], which “respiratory analeptic effect relative to diethylnicotinamide” value [4] is on record?
Its value is “equivalent to that produced by a six times higher dose of diethylnicotinamide”.

What about the LD50 [2] of the same compound?
Its LD50 is 49 mg/kg.

For CCCNc1nc(OCC)nc2cscc12.Cl [G, 2-ethoxy-4-n-propylamino-thieno[3,4-d]pyrimidine monohydrochloride], which “respiratory analeptic effect relative to diethylnicotinamide” value [4] is on record?
The value was “equivalent to that produced by a six times higher dose of diethylnicotinamide”.

And the LD50 [2]?
The LD50 was 42 mg/kg.

Source: US3931204A, “Thieno[3,4-d]pyrimidines” (U.C.B. Societe Anonyme, priority 1974, dated 1976)
